Patent publication US20100075907A1, “NEUROMEDIN U RECEPTOR AGONISTS AND USES THEREOF” (priority 2006, published 2010)
Starred links: 1 amine or outer side, 2 acyl side, 3 side chain; linkers in the order of their positions; H or OH if unused. Non-standard residues stand in square brackets, D forms with d. Residues, ends and D or L forms follow the SMILES beside them. *: point of attachment. X1 = CC(C)CCC[C@@H](C)[C@H]1CC[C@H]2[C@@H]3CC=C4C[C@@H](OC(=O)C*)CC[C@]4(C)[C@H]3CC[C@]12C; X2 = CCN1C(=O)CC(SC[C@H](NC(C)=O)C(=O)NCCCOCCOCCOCCCN*)C1=O; Succinimide(1-Et,3-yl) = CCN1C(=O)CC(*)C1=O; Suc = O=C(CCC(=O)[*:2])[*:1]

Columns and labels:
Assay type in all cases: cell-based
Set-up in all cases: expressed in transfected cells; host or cells: FLP-In CHO or HEK-293 FLP-In cells (pcDNA5)
mouse NMUR1-ATG = target: T1, mouse NMUR1-ATG (Mus musculus, UniProt O55040); assay: FLIPR calcium mobilization assay, mouse NMUR1-ATG
T1 sequence (O55040 1-428): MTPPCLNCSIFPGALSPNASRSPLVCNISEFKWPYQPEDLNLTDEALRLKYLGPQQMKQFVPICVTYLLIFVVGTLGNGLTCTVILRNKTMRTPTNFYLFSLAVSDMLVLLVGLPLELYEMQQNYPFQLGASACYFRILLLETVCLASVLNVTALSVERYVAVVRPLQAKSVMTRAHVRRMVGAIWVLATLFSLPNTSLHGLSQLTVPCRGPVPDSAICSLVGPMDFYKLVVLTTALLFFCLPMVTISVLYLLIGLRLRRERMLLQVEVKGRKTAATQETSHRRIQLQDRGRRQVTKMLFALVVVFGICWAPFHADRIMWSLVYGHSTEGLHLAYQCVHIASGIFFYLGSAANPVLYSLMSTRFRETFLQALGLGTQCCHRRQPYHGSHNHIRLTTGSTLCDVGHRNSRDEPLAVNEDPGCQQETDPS
Description: (§1) Human, mouse or rat cDNAs encoding NMUR1 or NMUR2 (as described in Howard et al. Nature 406: 70-74 (2000) were subcloned in pcDNA5 (Invitrogen) and transfected into FLP-In CHO cells and HEK-293 FLP-In cells purchased from Invitrogen (Carlsbad, Calif.) using lipofectamine (Invitrogen). The Flp-In system allows integration and expression of a particular gene of interest at a specific genomic location utilizing the Flp recombinase from yeast. The transfected cells were selected by growth in medium containing 200 μg/mL hygromycin (Invitrogen). Populations were frozen at early passage numbers, and these stocks were used for further studies. Stable clones that expressed the mRNAs were identified functionally by FLIPR as well as by RT-PCR. […] Two different rodent NMUR1 cell lines were thus generated: one with the codon as predicted from the genomic databases and another cell line with an engineered methionine (ATG) as the start codon. Additionally, stable cell lines expressing the human receptors were generated in HEK-293/aeq17 cells which stably express the aequorin gene under the CMV promoter. The human NMUR2 cDNA was cloned into pcDNA3.1 and human NMUR1 was subcloned into pIRES-puro (Clontech, Mountain View, Calif.), after transfection cells were selected in media containing G418 and either hygromycin (NMUR2) or puromycin (NMUR1).
(§2) The NMU receptors signal primarily through Gαq/11 proteins; therefore calcium mobilization assays can be utilized for functional activity.
(§3) Stable cell lines expressing human and or rodent NMUR1 or human NMUR2 receptors were plated at a density of 12,000 cells per well overnight on poly-lysine coated 384-well black-walled plates. The following day, the media was removed from the plates and the cells were subsequently loaded with Fluo-3 (Molecular Probes), a calcium sensitive dye, diluted in FLIPR buffer (1× Hank's buffered saline containing 20 mM HEPES, 0.1% BSA, 2.5 mM probenecid (Sigma) and 1.6 mM TR40). All reagents are from Invitrogen unless otherwise noted. Peptide stocks were resuspended in DMSO at a stock concentration of 2 mM and diluted in FLIPR buffer on the day of the experiment to a 4 μM working stock solution.
(§4) After a 90 minute incubation at room-temperature, cell plates were loaded onto a FLIPR (Molecular Devices) to monitor cellular fluorescence (excitation=488 nm; emission=540 nm) before and after compound/peptide addition. Eight to twelve point dose responses were tested on NMUR-expressing cell lines using FLIPR with 1 μM peptide as the highest dose. The response after peptide addition was taken as the maximum fluorescence units minus the fluorescence immediately prior to stimulation for each well. EC50 values were calculated using GraphPad Prism (San Diego, Calif.) software.
(§5) In vitro responses of Neuromedin U receptor agonists (NMU1 to NMU25) in the FLIPR assay for human (Table 3), mouse (Table 4) and rat (Table 5) NMUR1 and NMUR2. EC50s are reported in nM values. Percent activity refers to the maximum response at 1 μM compared to the hNMU-25 response at the same concentration. NT=not tested.

mouse NMUR2 = mouse NMUR2 (Mus musculus, UniProt Q8BZ39); assay: FLIPR calcium mobilization assay, mouse NMUR2; conditions: for IC50: functional data, mouse R2
Description: as §1, §2, §3, §4, §5

rat NMUR1-ATG = target: T2, rat NMUR1-ATG (Rattus norvegicus, UniProt Q9JJI5); assay: FLIPR calcium mobilization assay, rat NMUR1-ATG; conditions: for EC50: FLIPR
T2 sequence (Q9JJI5 1-425): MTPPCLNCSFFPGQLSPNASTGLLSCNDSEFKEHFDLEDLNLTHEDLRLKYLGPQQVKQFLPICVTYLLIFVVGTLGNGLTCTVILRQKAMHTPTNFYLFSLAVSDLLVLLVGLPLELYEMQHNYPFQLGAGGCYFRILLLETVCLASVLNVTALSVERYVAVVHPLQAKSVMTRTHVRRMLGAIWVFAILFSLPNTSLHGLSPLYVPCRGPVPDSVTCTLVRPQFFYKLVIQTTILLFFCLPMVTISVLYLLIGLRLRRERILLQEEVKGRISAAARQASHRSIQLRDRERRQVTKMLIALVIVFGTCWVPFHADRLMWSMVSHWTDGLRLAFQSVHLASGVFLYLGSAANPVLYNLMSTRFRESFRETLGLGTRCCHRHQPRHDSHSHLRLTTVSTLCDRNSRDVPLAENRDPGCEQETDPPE
Description: as §1, §2, §3, §4, §5

[1] = functional, mouse R1-ATG, relative to native hNMU responses
[2] = functional, mouse R2, relative to native hNMU responses
[3] = functional, rat R1-ATG, relative to native hNMU responses
[4] = maximum response at 1 μM compared to hNMU-25, mouse NMUR1-ATG
[5] = maximum response at 1 μM compared to hNMU-25, mouse NMUR2
[6] = maximum response at 1 μM compared to hNMU-25, rat NMUR1-ATG

Chain of mouse NMUR2 (Q8BZ39 whole entry): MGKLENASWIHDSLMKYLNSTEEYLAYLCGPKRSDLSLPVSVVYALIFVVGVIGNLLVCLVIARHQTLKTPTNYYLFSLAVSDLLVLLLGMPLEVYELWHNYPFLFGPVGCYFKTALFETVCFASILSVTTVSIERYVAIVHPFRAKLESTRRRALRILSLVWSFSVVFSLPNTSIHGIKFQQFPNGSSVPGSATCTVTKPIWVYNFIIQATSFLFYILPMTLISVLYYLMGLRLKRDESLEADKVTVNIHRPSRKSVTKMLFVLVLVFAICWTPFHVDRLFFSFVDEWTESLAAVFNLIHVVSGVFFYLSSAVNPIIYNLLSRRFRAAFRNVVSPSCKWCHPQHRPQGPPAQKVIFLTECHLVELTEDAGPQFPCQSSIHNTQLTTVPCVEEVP

Row | % Activity (mouse NMUR1-ATG; [4]) [%] | % Activity (mouse NMUR2; [5]) [%] | % Activity (rat NMUR1-ATG; [6]) [%] | Compound | other results
1 |  |  |  | CC(C)C[C@@H](NC(=O)[C@H](Cc1ccccc1)NC(=O)[C@H](Cc1ccc(O)cc1)NC(=O)CNC(=O)[C@H](CCCNC(=N)N)NC(=O)[C@H](CO)NC(=O)[C@H](CCC(N)=O)NC(=O)[C@H](CO)NC(=O)[C@H](C)NC(=O)[C@H](Cc1ccccc1)NC(=O)[C@@H]1CCCN1C(=O)[C@H](CO)NC(=O)[C@H](CCC(N)=O)NC(=O)[C@H](Cc1ccccc1)NC(=O)[C@H](CCC(=O)O)NC(=O)[C@H](CCC(=O)O)NC(=O)[C@H](CC(=O)O)NC(=O)[C@@H](NC(=O)[C@H](CCCNC(=N)N)NC(=O)[C@@H](N)Cc1ccccc1)C(C)C)C(=O)N[C@@H](Cc1c[nH]c2ccccc12)C(=O)N[C@@H](CCCNC(=N)N)C(=O)N1CCC[C@H]1C(=O)N[C@@H](CCCNC(=N)N)C(=O)N[C@@H](CC(N)=O)C(N)=O [Agonist H] (H-FRVDEEFQSPFASQSRGYF[dL]WRPRN-NH2; N-terminus assumed) | IC50 (mouse NMUR1-ATG; functional data, mouse R1-ATG): 25 nM; % Activity (mouse NMUR1-ATG; [1]): 90%; IC50 (mouse NMUR2): > 1000 nM; % Activity (mouse NMUR2; [2]): 40%; IC50 (rat NMUR1-ATG; functional data, rat R1-ATG): 31.1 nM; % Activity (rat NMUR1-ATG; [3]): 95%
2 | 100 | 100 | 100 | CCN1C(=O)CC(SC[C@H](NC(C)=O)C(=O)NCC(=O)N[C@@H](Cc2ccc(O)cc2)C(=O)N[C@@H](Cc2ccccc2)C(=O)N[C@@H](CC(C)C)C(=O)N[C@@H](Cc2ccccc2)C(=O)N[C@@H](CCCNC(=N)N)C(=O)N2CCC[C@H]2C(=O)N[C@@H](CCCNC(=N)N)C(=O)N[C@@H](CC(N)=O)C(N)=O)C1=O (stereo partly drawn) [NMU6] (Ac-C(Succinimide(1-Et,3-yl))GYFLFRPRN-NH2) | EC50 (rat NMUR1-ATG; rat NMUR1-ATG): 1 nM
3 | 100 | 100 | 97.2 | CCN1C(=O)CC(SC[C@H](NC(C)=O)C(=O)N[C@@H](Cc2ccccc2)C(=O)N[C@@H](CCCNC(=N)N)C(=O)N[C@H](C(=O)N[C@@H](CC(=O)O)C(=O)N[C@@H](CCC(=O)O)C(=O)N[C@@H](CCC(=O)O)C(=O)N[C@@H](Cc2ccccc2)C(=O)N[C@@H](CCC(N)=O)C(=O)N[C@@H](CO)C(=O)N2CCC[C@H]2C(=O)N[C@@H](Cc2ccccc2)C(=O)N[C@@H](C)C(=O)N[C@@H](CO)C(=O)N[C@@H](CCC(N)=O)C(=O)N[C@@H](CO)C(=O)N[C@@H](CCCNC(=N)N)C(=O)NCC(=O)N[C@@H](Cc2ccc(O)cc2)C(=O)N[C@@H](Cc2ccccc2)C(=O)N[C@@H](CC(C)C)C(=O)N[C@@H](Cc2ccccc2)C(=O)N[C@@H](CCCNC(=N)N)C(=O)N2CCC[C@H]2C(=O)N[C@@H](CCCNC(=N)N)C(=O)N[C@@H](CC(N)=O)C(N)=O)C(C)C)C1=O (stereo partly drawn) [NMU8] (Ac-C(Succinimide(1-Et,3-yl))FRVDEEFQSPFASQSRGYFLFRPRN-NH2) | 
4 | 100 | 100 | 100 | CCN1C(=O)CC(SC[C@H](NC(C)=O)C(=O)NCCCOCCOCCOCCCNC(=O)CCC(=O)N[C@@H](Cc2ccccc2)C(=O)N[C@@H](CC(C)C)C(=O)N[C@@H](Cc2ccccc2)C(=O)N[C@@H](CCCNC(=N)N)C(=O)N2CCC[C@H]2C(=O)N[C@@H](CCCNC(=N)N)C(=O)N[C@@H](CC(N)=O)C(N)=O)C1=O (stereo partly drawn) [NMU15, Ac-C1-Ttds-FLFRPRN-CONH2] ({X2-Suc}-FLFRPRN-NH2) | 
5 | 100 | 100 | 100 | CCN1C(=O)CC(SC[C@H](NC(C)=O)C(=O)N[C@@H](C)C(=O)N[C@@H](CO)C(=O)N[C@@H](CCC(N)=O)C(=O)N[C@@H](CO)C(=O)N[C@@H](CCCNC(=N)N)C(=O)NCC(=O)N[C@@H](Cc2ccc(O)cc2)C(=O)N[C@@H](Cc2ccccc2)C(=O)N[C@@H](CC(C)C)C(=O)N[C@@H](Cc2ccccc2)C(=O)N[C@@H](CCCNC(=N)N)C(=O)N2CCC[C@H]2C(=O)N[C@@H](CCCNC(=N)N)C(=O)N[C@@H](CC(N)=O)C(N)=O)C1=O (stereo partly drawn) [NMU17] (Ac-C(Succinimide(1-Et,3-yl))ASQSRGYFLFRPRN-NH2) | 
6 |  |  | 99.9 | Ac-C4FRVDEEFQSPFASQSRGYFLFRPRN-CONH2 ({Ac-C(PEG 20 kDa)}-FRVDEEFQSPFASQSRGYFLFRPRN-NH2) [NMU21, C4 = Cys(PEG)20 kDa] | EC50 (mouse NMUR1-ATG; FLIPR, mouse NMUR1-ATG): 9.1 nM; EC50 (rat NMUR1-ATG; rat NMUR1-ATG): 19.5 nM

Row | Compound | % Activity (mouse NMUR1-ATG; [4]) [%] | % Activity (mouse NMUR2; [5]) [%] | % Activity (rat NMUR1-ATG; [6]) [%] | other results
7 | CC(=O)N[C@@H](CSCC(=O)O[C@H]1CC[C@@]2(C)C(=CC[C@H]3[C@@H]4CC[C@H]([C@H](C)CCCC(C)C)[C@@]4(C)CC[C@@H]32)C1)C(=O)NCC(=O)N[C@@H](Cc1ccc(O)cc1)C(=O)N[C@@H](Cc1ccccc1)C(=O)N[C@@H](CC(C)C)C(=O)N[C@@H](Cc1ccccc1)C(=O)N[C@@H](CCCNC(=N)N)C(=O)N1CCC[C@H]1C(=O)N[C@@H](CCCNC(=N)N)C(=O)N[C@@H](CC(N)=O)C(N)=O [NMU11] (Ac-C(X1)GYFLFRPRN-NH2) | 81.3 | 70.5 | 50.9 | 
8 | CCN1C(=O)CC(SC[C@H](NC(C)=O)C(=O)N[C@@H](Cc2ccccc2)C(=O)N[C@@H](CCCNC(=N)N)C(=O)N[C@H](C(=O)N[C@@H](CC(=O)O)C(=O)N[C@@H](CCC(=O)O)C(=O)N[C@@H](CCC(=O)O)C(=O)N[C@@H](Cc2ccccc2)C(=O)N[C@@H](CCC(N)=O)C(=O)N[C@@H](CO)C(=O)N2CCC[C@H]2C(=O)N[C@@H](Cc2ccccc2)C(=O)N[C@@H](C)C(=O)N[C@@H](CO)C(=O)N[C@@H](CCC(N)=O)C(=O)N[C@@H](CO)C(=O)N[C@@H](CCCNC(=N)N)C(=O)NCC(=O)N[C@@H](Cc2ccc(O)cc2)C(=O)N[C@@H](Cc2ccccc2)C(=O)N[C@H](C)C(=O)N[C@@H](Cc2c[nH]c3ccccc23)C(=O)N[C@@H](CCCNC(=N)N)C(=O)N2CCC[C@H]2C(=O)N[C@@H](CCCNC(=N)N)C(=O)N[C@@H](CC(N)=O)C(N)=O)C(C)C)C1=O (stereo partly drawn) [NMU13] (Ac-C(Succinimide(1-Et,3-yl))FRVDEEFQSPFASQSRGYF[dA]WRPRN-NH2) | 98.6 | 0.0 | 100 | % Activity (mouse NMUR1-ATG; [1]): 96%; EC50 (mouse NMUR2; FLIPR, mouse NMUR2): > 1000 nM; IC50 (mouse NMUR2): > 1000 nM; % Activity (mouse NMUR2; [2]): 27%; % Activity (rat NMUR1-ATG; [3]): 92%
